These results are taken from patent US20230144186A1 (The Trustees of the University of Pennsylvania, priority 2020, published 2023).

The subject of data set [1] is airway inflammation. The conditions noted are these: murine model; cited from earlier work.
Data set [2] has as its system nitric oxide (NO). As to the kind of experiment: NO production after nasal instillation in ferrets (nasal wash). The data set is classed as in vivo, ferret.
Data set [3] concerns human ciliated sinonasal air-liquid-interface (ALI) cells.
The test system of data set [4] is human H1N1 influenza A strain PR8. The format is cell-based. Conditions: 0.1% quinine in 0.9% sodium chloride from 1 h post infection, daily, 72 hrs.
In data set [5] the test system is SARS-CoV-2 (UPenn/Philadelphia strain). As to the kind of experiment: Human sinonasal ALI infection with SARS-CoV-2, nucleocapsid staining and quantitative fluorescence imaging. The conditions noted are these: 1 mg/mL quinine sulfate, 48 hrs; average of two measurements.

Like-named read-outs stand apart in the source and are kept apart here.

As to `C=C[C@H]1C[N@@]2CC[C@H]1C[C@H]2[C@H](O)c1ccnc2ccc(OC)cc12` [quinine], the “airway inflammation (BAL, histology, PFTs)” value in data set [1] was “reduce airway inflammation”. Moreover, the results for the “NO in nasal wash” value in data set [2] (5 min after 200 μL of 1 mg/mL solution intranasal), in data set [2] (10 min after 200 μL of 1 mg/mL solution intranasal) and in data set [2] (15 min after 200 μL of 1 mg/mL solution intranasal) were 6.64 ng/mL, 6.42 ng/mL and 6.52 ng/mL, respectively. Further, the cell viability entry in data set [3] was “remained viable and visually healthy”. Further, the “transcripts for both the NP and IAV-M genes” value is on record as “lesser relative reduction” in data set [4] (subject A cells, MOI of 1) and “marked relative reduction” in data set [4] (subject B (more mature) ALI culture). Moreover, the “Quinine Rx (% infected)” value in data set [5] is on record as 2.32%.
